ChEMBL document CHEMBL3132769, “Fragment growing to retain or alter the selectivity of anchored kinase hinge-binding fragments” (Medchemcomm, 2014)

What was measured:
[1] = molecular target: Tyrosine-protein kinase Lyn (Homo sapiens) (UniProt P07948); experiment: Inhibition of human full length LYN expressed in baculovirus assessed as substrate phosphorylation using fluorescence-labelled peptides as substrate at 95 uM after 90 mins by microfluidic peptide phosphorylation assay
[2] = molecular target: T1, Testis-specific serine/threonine-protein kinase 2 (Homo sapiens) (UniProt Q96PF2); experiment: Inhibition of human full length TSSK2 expressed in baculovirus assessed as substrate phosphorylation using fluorescence-labelled peptides as substrate at 95 uM after 90 mins by microfluidic peptide phosphorylation assay
T1 sequence (whole entry): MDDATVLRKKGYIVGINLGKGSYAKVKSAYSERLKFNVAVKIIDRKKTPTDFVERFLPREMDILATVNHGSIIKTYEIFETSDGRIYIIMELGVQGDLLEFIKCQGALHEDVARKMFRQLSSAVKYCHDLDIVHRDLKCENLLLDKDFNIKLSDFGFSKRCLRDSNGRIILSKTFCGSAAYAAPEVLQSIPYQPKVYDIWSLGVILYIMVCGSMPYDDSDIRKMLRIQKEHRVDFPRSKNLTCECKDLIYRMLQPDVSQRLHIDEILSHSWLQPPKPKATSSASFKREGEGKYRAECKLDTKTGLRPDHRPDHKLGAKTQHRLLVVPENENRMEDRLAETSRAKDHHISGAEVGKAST

[3] = molecular target: T2, Aurora kinase A (Homo sapiens) (UniProt O14965); experiment: Inhibition of human full length AurA expressed in baculovirus assessed as substrate phosphorylation using fluorescence-labelled peptides as substrate at […] after 90 mins by microfluidic peptide phosphorylation assay
T2 sequence (whole entry): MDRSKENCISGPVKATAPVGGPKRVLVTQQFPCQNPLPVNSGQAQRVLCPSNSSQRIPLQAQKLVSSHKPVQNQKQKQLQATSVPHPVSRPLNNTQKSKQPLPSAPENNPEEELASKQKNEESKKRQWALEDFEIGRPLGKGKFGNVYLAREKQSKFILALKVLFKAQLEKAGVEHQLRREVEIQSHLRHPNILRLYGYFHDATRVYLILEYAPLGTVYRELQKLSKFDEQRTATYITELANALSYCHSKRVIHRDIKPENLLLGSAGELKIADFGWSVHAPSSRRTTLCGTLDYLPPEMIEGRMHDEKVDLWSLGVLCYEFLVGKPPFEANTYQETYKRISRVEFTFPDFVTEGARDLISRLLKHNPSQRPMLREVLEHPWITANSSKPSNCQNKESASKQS

[4] = molecular target: MAP kinase-activated protein kinase 2 (Homo sapiens) (UniProt P49137); experiment: Inhibition of human full length MAPKAPK2 expressed in baculovirus assessed as substrate phosphorylation using fluorescence-labelled peptides as substrate at 420 uM after 90 mins by microfluidic peptide phosphorylation assay
[5] = molecular target: T3, Serine/threonine-protein kinase Nek2 (Homo sapiens) (UniProt P51955); experiment: Inhibition of human full length NEK2 expressed in baculovirus assessed as substrate phosphorylation using fluorescence-labelled peptides as substrate at 70 uM after 90 mins by microfluidic peptide phosphorylation assay
T3 sequence (whole entry): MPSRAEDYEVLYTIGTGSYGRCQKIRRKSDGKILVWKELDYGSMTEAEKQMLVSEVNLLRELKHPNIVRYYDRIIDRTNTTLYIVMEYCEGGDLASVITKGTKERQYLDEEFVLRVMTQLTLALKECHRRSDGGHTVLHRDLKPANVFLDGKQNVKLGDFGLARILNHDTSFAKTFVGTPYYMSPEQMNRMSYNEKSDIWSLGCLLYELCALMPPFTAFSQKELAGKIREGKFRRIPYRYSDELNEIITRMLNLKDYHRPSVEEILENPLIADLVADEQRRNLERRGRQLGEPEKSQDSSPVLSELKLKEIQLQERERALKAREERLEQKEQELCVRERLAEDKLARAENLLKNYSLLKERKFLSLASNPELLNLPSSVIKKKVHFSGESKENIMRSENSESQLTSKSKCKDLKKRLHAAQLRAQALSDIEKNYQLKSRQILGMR

[6] = molecular target: Protein kinase C alpha type (Homo sapiens) (UniProt P17252); experiment: Inhibition of human truncated PKC alpha expressed in baculovirus assessed as substrate phosphorylation using fluorescence-labelled peptides as substrate at 70 uM after 90 mins by microfluidic peptide phosphorylation assay
[7] = molecular target: T4, cGMP-dependent protein kinase 1 (Homo sapiens) (UniProt Q13976); experiment: Inhibition of human full length PKG-1a expressed in baculovirus assessed as substrate phosphorylation using fluorescence-labelled peptides as substrate at 70 uM after 90 mins by microfluidic peptide phosphorylation assay
T4 sequence (whole entry): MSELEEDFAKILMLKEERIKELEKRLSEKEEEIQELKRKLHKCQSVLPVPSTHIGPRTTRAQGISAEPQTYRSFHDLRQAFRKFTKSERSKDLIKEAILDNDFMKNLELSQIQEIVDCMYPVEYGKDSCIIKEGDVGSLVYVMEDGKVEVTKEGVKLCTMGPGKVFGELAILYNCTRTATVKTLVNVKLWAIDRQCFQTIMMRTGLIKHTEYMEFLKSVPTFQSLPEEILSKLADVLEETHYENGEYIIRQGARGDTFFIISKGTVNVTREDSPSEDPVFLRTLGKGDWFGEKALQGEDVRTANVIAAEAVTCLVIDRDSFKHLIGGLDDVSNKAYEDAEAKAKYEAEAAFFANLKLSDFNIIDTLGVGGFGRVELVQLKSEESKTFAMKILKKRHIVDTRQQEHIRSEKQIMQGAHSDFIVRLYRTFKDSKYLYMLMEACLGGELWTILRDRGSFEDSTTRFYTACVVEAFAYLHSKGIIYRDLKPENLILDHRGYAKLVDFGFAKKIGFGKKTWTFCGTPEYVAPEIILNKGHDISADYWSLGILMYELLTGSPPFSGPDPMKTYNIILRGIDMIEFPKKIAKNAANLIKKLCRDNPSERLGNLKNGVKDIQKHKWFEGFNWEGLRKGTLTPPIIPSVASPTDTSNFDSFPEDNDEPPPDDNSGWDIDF

[8] = molecular target: T3, Serine/threonine-protein kinase Nek2 (Homo sapiens); experiment: Inhibition of human full length NEK2 expressed in baculovirus assessed as substrate phosphorylation using fluorescence-labelled peptides as substrate at 0.2 uM after 90 mins by microfluidic peptide phosphorylation assay
[9] = molecular target: T4, cGMP-dependent protein kinase 1 (Homo sapiens); experiment: Inhibition of human full length PKG-1a expressed in baculovirus assessed as substrate phosphorylation using fluorescence-labelled peptides as substrate at 2 uM after 90 mins by microfluidic peptide phosphorylation assay

Chain of MAP kinase-activated protein kinase 2 (Homo sapiens) (P49137 whole entry, looked up): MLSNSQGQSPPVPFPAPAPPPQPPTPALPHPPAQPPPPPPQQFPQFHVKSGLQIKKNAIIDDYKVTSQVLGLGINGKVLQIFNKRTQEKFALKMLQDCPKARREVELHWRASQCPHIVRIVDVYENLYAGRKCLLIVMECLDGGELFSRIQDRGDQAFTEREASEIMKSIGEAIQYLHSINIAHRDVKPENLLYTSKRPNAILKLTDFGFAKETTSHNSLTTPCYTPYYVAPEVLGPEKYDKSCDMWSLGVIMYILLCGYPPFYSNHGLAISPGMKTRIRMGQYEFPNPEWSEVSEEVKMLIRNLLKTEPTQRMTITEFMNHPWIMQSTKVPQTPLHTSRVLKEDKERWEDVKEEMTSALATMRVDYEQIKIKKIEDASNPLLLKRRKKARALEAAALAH
Chain of Tyrosine-protein kinase Lyn (Homo sapiens) (P07948 2-512 limits assumed): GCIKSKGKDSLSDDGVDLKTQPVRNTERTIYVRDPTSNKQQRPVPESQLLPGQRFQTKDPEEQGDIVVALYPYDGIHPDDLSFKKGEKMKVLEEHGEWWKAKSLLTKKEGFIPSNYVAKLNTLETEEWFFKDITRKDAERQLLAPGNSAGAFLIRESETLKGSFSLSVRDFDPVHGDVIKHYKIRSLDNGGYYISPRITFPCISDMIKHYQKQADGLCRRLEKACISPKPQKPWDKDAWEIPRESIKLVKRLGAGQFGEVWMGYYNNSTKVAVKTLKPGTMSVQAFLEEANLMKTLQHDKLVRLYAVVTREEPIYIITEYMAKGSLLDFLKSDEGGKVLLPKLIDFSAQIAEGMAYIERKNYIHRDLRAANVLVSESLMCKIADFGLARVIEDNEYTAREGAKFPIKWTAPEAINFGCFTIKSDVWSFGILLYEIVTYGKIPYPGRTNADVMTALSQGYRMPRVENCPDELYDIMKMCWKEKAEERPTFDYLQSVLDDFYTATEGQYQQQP

Structure (SMILES): NCCc1ccc(-c2ncnc3[nH]cnc23)cc1
- inhibition [1]: 65.5%
- inhibition [2]: 23.5%

Structure (SMILES): COC(=O)c1cnc(Nc2cnc(C#N)cn2)cc1NCC1CCNCC1
- inhibition [3]: 6.5%

Structure (SMILES): c1nc(N2CCOCC2)c2nc[nH]c2n1
- inhibition [4]: 74%

Structure (SMILES): CNCc1ccc(-c2ncnc3[nH]cnc23)cc1
- inhibition [5]: 15.5%
- inhibition [6]: 56%
- inhibition [7]: 97.5%

Structure (SMILES): Clc1ccc(C2(c3ccc(-c4ncnc5[nH]cnc45)cc3)CCNCC2)cc1
- inhibition [8]: 4.5%

Structure (SMILES): NC1CCN(c2ncnc3[nH]ccc23)CC1
- inhibition [9]: 10%
